In patent publication US20230027026A1, “FUSED PYRIMIDINE COMPOUNDS, COMPOSITIONS AND MEDICINAL APPLICATIONS THEREOF” (JUBILANT BIOSYS LIMITED, priority 2019, published 2023):

Columns and labels:
EGFR (T790M/L858R) = molecular target: T1, EGFR (T790M/L858R) (Homo sapiens, UniProt P00533, L858R/T790M); assay: EGFR L858R/T790M enzyme inhibition assay (HTRF); type: biochemical; conditions: 5 μM ATP, 60 min, read-out: EGFR_L858R T790M_IC50_nM
T1 construct: GST; purchased Proqinase
Summary of the method: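 HTRF kinase assay with 2.5 nM GST-EGFR T790M/L858R, 0.5 μM biotinylated gastrin peptide and 5 μM ATP in HEPES pH 7.4 with Mg/Mn, 60 min at room temperature; compounds from 10 μM top. Phosphotyrosine detected by Eu anti-pTyr/SA-APC; IC50 from % inhibition.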

[1] = test system: H1975 cells (L858R_T790M mutant); assay: H1975 proliferation assay; type: cell-based; conditions: Homo sapiens, NCI-H1975; read-out: Proliferation_Assay H1975 cells-EC50_nM L858R_T790M_mutant
A431 cells = assay: Cellular proliferation (Alamar Blue) assay, A431; type: cell-based; conditions: Homo sapiens, A-431; A431 cells, 72 hr, Alamar Blue; read-out: A431 IC50
Summary of the method: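 Seventy-two-hour growth assay with 3-fold compound titration (final 10–0.0005 μM) and Alamar Blue fluorescence end point, ex 540/em 590 nm.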

[2] = molecular target: EGFR (A767_dupASV) expressing Ba/F3 stable cell line (Homo sapiens, UniProt P00533, DUP767-769, cells depend on it); assay: Cellular proliferation (Alamar Blue) assay, EGFR A767_dupASV Ba/F3; type: cell-based; conditions: EGFR A767_dupASV Ba/F3, 72 hr, read-out: A767 IC50
Summary of the method: (§1)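 Alamar Blue proliferation read-out (3 h incubation, ex 540/em 590 nm) after 72 h compound exposure at 37 °C, 5% CO2, using final concentrations of 10-0.0005 μM in 3-fold steps. Cells: engineered Ba/F3 lines at 15,000 per well in RPMI/10% FBS, and BT-474.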

[3] = molecular target: EGFR(D770_N771insSVD) expressing Ba/F3 stable cell line (Homo sapiens, UniProt P00533, DUP768-770, cells depend on it); assay: Cellular proliferation (Alamar Blue) assay, EGFR D770_N771insSVD Ba/F3; type: cell-based; conditions: EGFR D770_N771insSVD Ba/F3, 72 hr, read-out: D770 IC50
Summary of the method: as §1

[4] = molecular target: HER2 (A775_G776insYVMA) expressing Ba/F3 stable cell line (Homo sapiens, UniProt P04626, DUP772-775, cells depend on it); assay: Cellular proliferation (Alamar Blue) assay, HER2 YVMA Ba/F3; type: cell-based; conditions: HER2 A775_G776insYVMA Ba/F3, 72 hr, read-out: YVMA IC50
Summary of the method: as §1

Sequence of HER2 (A775_G776insYVMA) expressing Ba/F3 stable cell line (P04626 with tags, fused parts or gaps DUP772-775): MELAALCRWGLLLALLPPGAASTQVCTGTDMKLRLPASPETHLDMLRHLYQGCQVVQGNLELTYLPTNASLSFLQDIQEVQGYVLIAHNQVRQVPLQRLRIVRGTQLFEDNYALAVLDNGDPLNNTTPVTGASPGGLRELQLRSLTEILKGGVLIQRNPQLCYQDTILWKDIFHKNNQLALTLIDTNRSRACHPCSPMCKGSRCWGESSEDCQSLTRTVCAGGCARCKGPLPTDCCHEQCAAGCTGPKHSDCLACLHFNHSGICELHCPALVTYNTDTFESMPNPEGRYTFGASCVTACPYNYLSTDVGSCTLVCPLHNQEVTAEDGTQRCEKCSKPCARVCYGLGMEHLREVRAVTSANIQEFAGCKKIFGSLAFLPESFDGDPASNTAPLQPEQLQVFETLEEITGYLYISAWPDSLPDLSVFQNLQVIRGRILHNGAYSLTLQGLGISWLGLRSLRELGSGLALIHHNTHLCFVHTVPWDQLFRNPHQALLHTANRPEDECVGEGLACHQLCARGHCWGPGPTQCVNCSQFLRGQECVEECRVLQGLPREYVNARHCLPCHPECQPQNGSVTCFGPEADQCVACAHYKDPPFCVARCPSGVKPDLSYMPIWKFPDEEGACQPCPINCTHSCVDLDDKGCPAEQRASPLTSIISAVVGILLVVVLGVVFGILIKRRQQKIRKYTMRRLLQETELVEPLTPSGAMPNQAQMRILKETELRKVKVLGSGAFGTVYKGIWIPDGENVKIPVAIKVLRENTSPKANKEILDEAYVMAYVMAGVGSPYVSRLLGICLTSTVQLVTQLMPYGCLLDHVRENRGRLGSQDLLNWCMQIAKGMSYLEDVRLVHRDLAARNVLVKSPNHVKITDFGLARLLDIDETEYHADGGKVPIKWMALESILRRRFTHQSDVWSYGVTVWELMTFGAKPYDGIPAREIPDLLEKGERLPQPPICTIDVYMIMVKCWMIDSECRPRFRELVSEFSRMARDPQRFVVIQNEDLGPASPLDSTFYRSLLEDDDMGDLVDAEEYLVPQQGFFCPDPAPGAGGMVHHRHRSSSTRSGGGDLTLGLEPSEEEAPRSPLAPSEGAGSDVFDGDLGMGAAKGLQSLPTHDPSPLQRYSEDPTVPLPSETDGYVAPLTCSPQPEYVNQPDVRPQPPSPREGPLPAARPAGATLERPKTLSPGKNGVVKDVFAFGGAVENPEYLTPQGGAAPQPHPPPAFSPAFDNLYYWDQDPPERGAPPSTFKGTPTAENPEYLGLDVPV
Sequence of EGFR(D770_N771insSVD) expressing Ba/F3 stable cell line (P00533 with tags, fused parts or gaps DUP768-770): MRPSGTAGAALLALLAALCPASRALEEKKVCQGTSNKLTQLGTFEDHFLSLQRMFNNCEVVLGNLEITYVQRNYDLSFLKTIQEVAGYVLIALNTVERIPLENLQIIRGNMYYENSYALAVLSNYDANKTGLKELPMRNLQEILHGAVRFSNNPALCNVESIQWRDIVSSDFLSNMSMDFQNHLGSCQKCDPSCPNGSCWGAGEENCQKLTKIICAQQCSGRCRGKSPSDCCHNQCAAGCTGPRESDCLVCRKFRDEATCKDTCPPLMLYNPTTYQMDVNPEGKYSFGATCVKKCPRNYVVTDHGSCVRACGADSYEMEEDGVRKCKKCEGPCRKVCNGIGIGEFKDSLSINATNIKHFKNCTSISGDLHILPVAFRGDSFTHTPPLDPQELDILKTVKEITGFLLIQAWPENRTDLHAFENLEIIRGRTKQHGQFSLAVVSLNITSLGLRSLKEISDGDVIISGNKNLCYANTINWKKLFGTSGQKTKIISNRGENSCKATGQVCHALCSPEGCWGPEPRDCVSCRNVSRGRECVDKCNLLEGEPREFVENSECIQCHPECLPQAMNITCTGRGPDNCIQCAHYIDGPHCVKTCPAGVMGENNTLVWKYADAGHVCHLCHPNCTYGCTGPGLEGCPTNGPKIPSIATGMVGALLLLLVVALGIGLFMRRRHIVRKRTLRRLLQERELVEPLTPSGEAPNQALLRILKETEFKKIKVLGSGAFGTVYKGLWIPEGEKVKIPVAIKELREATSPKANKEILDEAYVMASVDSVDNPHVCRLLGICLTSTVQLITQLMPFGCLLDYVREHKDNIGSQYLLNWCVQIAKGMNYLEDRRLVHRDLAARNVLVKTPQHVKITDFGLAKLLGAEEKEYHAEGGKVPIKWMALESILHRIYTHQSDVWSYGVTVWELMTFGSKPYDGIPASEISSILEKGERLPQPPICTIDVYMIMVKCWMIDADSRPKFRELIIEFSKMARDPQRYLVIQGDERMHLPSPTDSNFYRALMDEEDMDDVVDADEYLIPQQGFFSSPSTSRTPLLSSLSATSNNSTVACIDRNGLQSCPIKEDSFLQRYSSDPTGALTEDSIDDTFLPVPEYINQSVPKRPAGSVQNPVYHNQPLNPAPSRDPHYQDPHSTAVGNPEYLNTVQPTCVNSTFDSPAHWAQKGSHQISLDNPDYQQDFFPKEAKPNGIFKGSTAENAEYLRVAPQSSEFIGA
T1 sequence (P00533 25-1210 T790M/L858R): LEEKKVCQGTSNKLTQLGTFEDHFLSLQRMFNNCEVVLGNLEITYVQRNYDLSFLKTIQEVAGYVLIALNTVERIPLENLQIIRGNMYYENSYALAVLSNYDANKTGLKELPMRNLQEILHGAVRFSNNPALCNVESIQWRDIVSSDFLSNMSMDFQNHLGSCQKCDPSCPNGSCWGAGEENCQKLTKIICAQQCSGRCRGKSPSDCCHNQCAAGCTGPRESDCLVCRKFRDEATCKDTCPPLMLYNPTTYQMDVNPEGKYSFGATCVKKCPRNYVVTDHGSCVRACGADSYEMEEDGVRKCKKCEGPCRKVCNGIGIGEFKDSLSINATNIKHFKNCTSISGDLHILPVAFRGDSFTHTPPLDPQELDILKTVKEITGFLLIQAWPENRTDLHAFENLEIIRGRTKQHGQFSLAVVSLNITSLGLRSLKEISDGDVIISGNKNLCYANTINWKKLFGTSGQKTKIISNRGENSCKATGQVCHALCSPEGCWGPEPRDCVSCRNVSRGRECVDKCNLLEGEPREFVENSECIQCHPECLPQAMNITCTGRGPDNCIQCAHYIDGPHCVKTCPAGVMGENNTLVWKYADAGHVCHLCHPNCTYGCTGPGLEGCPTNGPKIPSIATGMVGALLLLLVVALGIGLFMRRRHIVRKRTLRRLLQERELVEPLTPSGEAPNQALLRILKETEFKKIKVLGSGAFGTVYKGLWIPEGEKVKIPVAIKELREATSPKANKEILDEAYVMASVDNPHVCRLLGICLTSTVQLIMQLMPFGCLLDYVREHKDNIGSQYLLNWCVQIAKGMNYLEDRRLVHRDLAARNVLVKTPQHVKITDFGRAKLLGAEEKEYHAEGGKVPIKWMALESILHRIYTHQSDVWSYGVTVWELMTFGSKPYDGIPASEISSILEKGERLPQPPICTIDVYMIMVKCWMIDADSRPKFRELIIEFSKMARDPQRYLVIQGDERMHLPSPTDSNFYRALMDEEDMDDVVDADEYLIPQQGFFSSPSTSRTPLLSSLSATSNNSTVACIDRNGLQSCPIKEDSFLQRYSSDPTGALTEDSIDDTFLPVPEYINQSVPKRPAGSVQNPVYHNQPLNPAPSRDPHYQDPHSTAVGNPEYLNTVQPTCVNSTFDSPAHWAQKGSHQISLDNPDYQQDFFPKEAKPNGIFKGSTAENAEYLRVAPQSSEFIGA
Sequence of EGFR (A767_dupASV) expressing Ba/F3 stable cell line (P00533 with tags, fused parts or gaps DUP767-769): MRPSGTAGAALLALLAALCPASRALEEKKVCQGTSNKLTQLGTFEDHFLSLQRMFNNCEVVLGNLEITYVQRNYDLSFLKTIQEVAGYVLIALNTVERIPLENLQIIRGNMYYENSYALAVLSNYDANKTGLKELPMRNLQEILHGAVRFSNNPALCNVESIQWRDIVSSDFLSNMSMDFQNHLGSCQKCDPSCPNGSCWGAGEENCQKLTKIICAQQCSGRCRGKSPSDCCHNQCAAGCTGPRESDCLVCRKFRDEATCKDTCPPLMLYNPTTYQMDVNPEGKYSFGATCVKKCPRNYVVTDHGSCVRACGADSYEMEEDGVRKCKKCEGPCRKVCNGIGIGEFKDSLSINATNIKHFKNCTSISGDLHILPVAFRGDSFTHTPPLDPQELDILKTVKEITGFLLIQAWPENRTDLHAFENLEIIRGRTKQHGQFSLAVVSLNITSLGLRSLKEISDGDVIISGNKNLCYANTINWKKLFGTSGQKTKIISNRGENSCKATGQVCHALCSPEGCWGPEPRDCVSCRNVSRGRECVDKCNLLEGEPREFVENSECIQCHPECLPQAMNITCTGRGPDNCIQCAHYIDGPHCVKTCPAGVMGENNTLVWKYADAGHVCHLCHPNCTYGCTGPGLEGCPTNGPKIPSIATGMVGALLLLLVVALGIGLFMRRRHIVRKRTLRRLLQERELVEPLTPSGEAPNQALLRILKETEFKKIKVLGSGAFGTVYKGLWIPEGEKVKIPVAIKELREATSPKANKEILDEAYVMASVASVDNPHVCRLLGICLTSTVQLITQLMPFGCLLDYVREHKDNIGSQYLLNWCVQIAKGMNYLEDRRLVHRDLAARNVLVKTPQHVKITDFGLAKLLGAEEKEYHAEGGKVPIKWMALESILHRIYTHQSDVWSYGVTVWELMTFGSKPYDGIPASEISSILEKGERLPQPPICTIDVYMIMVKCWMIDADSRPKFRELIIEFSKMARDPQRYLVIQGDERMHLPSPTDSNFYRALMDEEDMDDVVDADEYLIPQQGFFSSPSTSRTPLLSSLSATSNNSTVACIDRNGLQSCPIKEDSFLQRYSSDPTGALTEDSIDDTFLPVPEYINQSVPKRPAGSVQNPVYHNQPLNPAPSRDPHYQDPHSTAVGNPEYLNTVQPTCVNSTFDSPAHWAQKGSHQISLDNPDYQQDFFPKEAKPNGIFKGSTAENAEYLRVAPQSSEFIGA

Row | SMILES | IC50 (EGFR (T790M/L858R)) [nM] | EC50 [1] [nM] | IC50 (A431 cells) [nM] | GI50 [2] [nM] | GI50 [3] [nM] | GI50 [4] [nM]
1 | C=CC(=O)Nc1cccc(N2C(=O)N(Cc3ccccc3)Cc3cnc(Nc4cnn(CCOC)c4)nc32)c1 [Compound 15, N-(3-(3-benzyl-7-((1-(2-methoxyethyl)-1H-pyrazol-4-yl)amino)-2-oxo-3,4-dihydropyrimido[4,5-d]pyrimidin-1(2H)-yl)phenyl)acrylamide] | 2 | 1.8 | 77 | 10 | 6 | 23
2 | C=CC(=O)Nc1cccc(N2C(=O)N(Cc3ccccc3)Cc3cnc(Nc4ccc(N5CCOCC5)nc4)nc32)c1 [Compound 46, N-(3-(3-benzyl-7-((6-morpholinopyridin-3-yl)amino)-2-oxo-3,4-dihydropyrimido[4,5-d]pyrimidin-1(2H)-yl)phenyl)acrylamide] | 2.6 | 3.7 | 1700 | 14 | 16 | 67
3 | Cn1cc(Nc2ncc3c(n2)N(c2cccc(NC(=O)/C=C/Cl)c2)C(=O)N(Cc2ccccc2)C3)cn1 [Compound 50, (E)-N-(3-(3-benzyl-7-((1-methyl-1H-pyrazol-4-yl)amino)-2-oxo-3,4-dihydropyrimido[4,5-d]pyrimidin-1(2H)-yl)phenyl)-3-chloroacrylamide] | 0.4 | 4200 | 5380 | 1350 | 8720 | 
4 | C=CC(=O)N1CCC(N2C(=O)N(Cc3ccccc3)Cc3cnc(Nc4cn(C)nc4Cl)nc32)C1 (racemic) [Compound 37, 1-(1-acryloylpyrrolidin-3-yl)-3-benzyl-7-((3-chloro-1-methyl-1H-pyrazol-4-yl)amino)-3,4-dihydropyrimido[4,5-d]pyrimidin-2(1H)-one] | 167 | 372 | ≥ 10000 | ≥ 10000 | ≥ 10000 | 
5 | CN(C)C/C=C/C(=O)Nc1cccc(N2C(=O)N(Cc3ccccc3)Cc3cnc(Nc4cnn(CCO)c4)nc32)c1 [Compound 14, (E)-N-(3-(3-benzyl-7-((1-(2-hydroxyethyl)-1H-pyrazol-4-yl)amino)-2-oxo-3,4-dihydropyrimido[4,5-d]pyrimidin-1(2H)-yl)phenyl)-4-(dimethylamino)but-2-enamide] | 5 | 37.8 | 6080 | 2570 | 2920 | 
6 | Cc1csc(Nc2ncc3c(n2)N(C2CCCC(NC(=O)/C=C/CN(C)C)C2)C(=O)N(Cc2ccccc2)C3)n1 (stereo not shown) [Compound 29, (E)-N-(3-(3-benzyl-7-((4-methylthiazol-2-yl)amino)-2-oxo-3,4-dihydropyrimido[4,5-d]pyrimidin-1(2H)-yl)cyclohexyl)-4-(dimethylamino)but-2-enamide] | 660 | 1080 | 4090 | 2600 | 431 | 
7 | CC(C)n1cc(Nc2ncc3c(n2)N(c2cccc(NC(=O)/C=C/CN(C)C)c2)C(=O)N(Cc2ccccc2)C3)cn1 [Compound 9, (E)-N-(3-(3-benzyl-7-((1-isopropyl-1H-pyrazol-4-yl)amino)-2-oxo-3,4-dihydropyrimido[4,5-d]pyrimidin-1(2H)-yl)phenyl)-4-(dimethylamino)but-2-enamide] | 4 | 17.6 | 6870 | 103 | 114 | 38
8 | CN(C)C/C=C/C(=O)Nc1cccc(N2C(=O)N(Cc3ccccc3)Cc3cnc(Nc4cnn(C)c4)nc32)c1 [Compound 49, (E)-N-(3-(3-benzyl-7-((1-methyl-1H-pyrazol-4-yl)amino)-2-oxo-3,4-dihydropyrimido[4,5-d]pyrimidin-1(2H)-yl)phenyl)-4-(dimethylamino)but-2-enamide] | 0.6 | 2.1 | ≥ 10000 | 351 | 476 | 178
9 | Cc1cnc(Nc2ncc3c(n2)N(C2CCCC(NC(=O)/C=C/CN(C)C)C2)C(=O)N(Cc2ccccc2)C3)s1 (stereo not shown) [Compound 27, (E)-N-(3-(3-benzyl-7-((5-methylthiazol-2-yl)amino)-2-oxo-3,4-dihydropyrimido[4,5-d]pyrimidin-1(2H)-yl)cyclohexyl)-4-(dimethylamino)but-2-enamide] | 303 | ≥ 10000 | 4400 | 9190 | ≥ 10000 | 
10 | CN(C)C/C=C/C(=O)Nc1cccc(N2C(=O)N(c3ccccc3)Cc3cnc(Nc4cn(C)nc4Cl)nc32)c1 [Compound 35, (E)-N-(3-(7-((3-chloro-1-methyl-1H-pyrazol-4-yl)amino)-2-oxo-3-phenyl-3,4-dihydropyrimido[4,5-d]pyrimidin-1(2H)-yl)phenyl)-4-(dimethylamino)but-2-enamide] | 7.8 | 79 | 2170 | 12 | 55 | 154
11 | C=CC(=O)Nc1cccc(N2C(=O)N(Cc3ccc(F)cc3)Cc3cnc(Nc4cnn(C)c4)nc32)c1 [Compound 3, N-(3-(3-(4-fluorobenzyl)-7-((1-methyl-1H-pyrazol-4-yl)amino)-2-oxo-3,4-dihydropyrimido[4,5-d]pyrimidin-1(2H)-yl)phenyl)acrylamide] | 13 | 40.9 | 676 | 184 | 131 | 
12 | C=CC(=O)NC1CCCC(N2C(=O)N(Cc3ccccc3)Cc3cnc(Nc4ncc(C)s4)nc32)C1 (stereo not shown) [Compound 30, N-(3-(3-benzyl-7-((5-methylthiazol-2-yl)amino)-2-oxo-3,4-dihydropyrimido[4,5-d]pyrimidin-1(2H)-yl)cyclohexyl)acrylamide] | 164 | 413 | 920 | 2810 | 2570 | 
13 | Cc1nn(C)cc1Nc1ncc2c(n1)N(c1cccc(NC(=O)/C=C/CN(C)C)c1)C(=O)N(Cc1ccccc1)C2 [Compound 23, (E)-N-(3-(3-benzyl-7-((1,3-dimethyl-1H-pyrazol-4-yl)amino)-2-oxo-3,4-dihydropyrimido[4,5-d]pyrimidin-1(2H)-yl)phenyl)-4-(dimethylamino)but-2-enamide] | 3 | 6.4 | 18 | 124 | 299 | 
14 | C=CC(=O)NC1CCCC(N2C(=O)N(Cc3ccccc3)Cc3cnc(Nc4cn(C)nc4Cl)nc32)C1 (stereo not shown) [Compound 40, N-(3-(3-benzyl-7-((3-chloro-1-methyl-1H-pyrazol-4-yl)amino)-2-oxo-3,4-dihydropyrimido[4,5-d]pyrimidin-1(2H)-yl)cyclohexyl)acrylamide] | 98 | 323 | ≥ 10000 | 1700 | 1870 | 
15 | C=CC(=O)NC1CCCC(N2C(=O)N(Cc3ccccc3)Cc3cnc(Nc4cnn(C)c4)nc32)C1 (stereo not shown) [Compound 24, N-(3-(3-benzyl-7-((1-methyl-1H-pyrazol-4-yl)amino)-2-oxo-3,4-dihydropyrimido[4,5-d]pyrimidin-1(2H)-yl)cyclohexyl)acrylamide] | 53 | 71 | 8340 | 356 | 340 | 
16 | CN(C)C/C=C/C(=O)NC1CCCC(N2C(=O)N(Cc3ccccc3)Cc3cnc(Nc4cnn(C)c4)nc32)C1 (stereo not shown) [Compound 31, (E)-N-(3-(3-benzyl-7-((1-methyl-1H-pyrazol-4-yl)amino)-2-oxo-3,4-dihydropyrimido[4,5-d]pyrimidin-1(2H)-yl)cyclohexyl)-4-(dimethylamino)but-2-enamide] | 281 | 299 | 1970 | 3320 | 3480 | 
